Laboratory results as given in patent US10213394B1, “Composition and method for treating neurological disease” (Osmotica Kereskedelmi és Szolgáltató Korlátolt Felelõsségû …, priority 2018, dated 2019).
Where a name gives a salt, the structure may show the parent alone.

What was measured:
[1] = cited from earlier work
[2] = cited from earlier work; remark: listed apart in the source
plasma proteins = settings: concentration range of 0.1 to 2.0 μg/mL; cited from earlier work
[3] = Solubility of amantadine HCl in water; format: physicochemical; settings: 160 mg, 240 mg and 320 mg of amantadine HCl

solubility in water [3]	SMILES	average elimination half-life ([1]; patients on chronic maintenance hemodialysis)	apparent plasma clearance ([1]; single dose 25 to 75 mg, 7 healthy elderly male volunteers, range 0.06 to 0.17) [L/h/kg]	half-life ([1]; single dose 25 to 75 mg, 7 healthy elderly male volunteers, range 20 to 41) [h]	volume of distribution ([2]; after intravenous administration) [L/kg]	reduction of renal clearance of amantadine ([2]; coadministration of quinine or quinidine)	administered dose excreted unchanged in urine ([2]; in vivo)	metabolism as share of total clearance ([2]; in vivo)	bound to plasma proteins (plasma proteins) [%]
–	NC12CC3CC(CC(C3)C1)C2 [Amantadine, amantadine]	eight days	0.10 ± 0.04	29 ± 7	3 to 8	about 30%	approximately 85%	5-15%	67
soluble in 250 mL water	NC12CC3CC(CC(C3)C1)C2 [amantadine HCl, Amantadine Hydrochloride]	–	–	–	–	–	–	–	–
